Publication PMC10952572, “Improved PIEZO1 agonism through 4‐benzoic acid modification of Yoda1” (British Journal of Pharmacology, 2023)

Molecular target: T1, hPIEZO1 (Homo sapiens, UniProt Q92508)
T1 construct: expressed in transfected cells
Assay: Automated patch clamp (SyncroPatch 384) on hPIEZO1-TREx cells
Type: cell-based
Settings: for Effect on M-Stim-evoked currents: hPIEZO1-TREx cells, −80 mV; for Cells responding to activation: hPIEZO1-TREx, 10 μM KC157, 10 μM Yoda1, 5 μM KC159
Procedure: For automated patch clamp, cells were cultured and harvested according to Nanion's standard cell culture protocol (Obergrussberger et al., [2014]). hPIEZO1‐TREx cells were induced to express PIEZO1 by incubation with 0.5 μg·ml^−1 tetracycline 24 h prior to experiments. Whole‐cell patch‐clamp recordings were conducted on HEK‐TREx, hPIEZO1‐TREx and mPIEZO1‐TREx cells according to Nanion's standard procedure for the SyncroPatch 384, using medium resistance (4–5 MΩ) chips (Obergrussberger et al., [2018]). Cells were held at −80 mV for the duration of the experiment. The channel was activated by mechanical forces in the absence and presence of the agonists. To stimulate PIEZO1 channels mechanically (mechanical stimulation [M‐Stim]), we dispensed 20 μl of solution (either reference or agonist) locally to the cell at a pipetting speed of 110 μl·s^−1 in synchrony with a triggered recording of the current response at the holding potential. The internal solution contained 110 mM KF, 10 mM KCl, 10 mM NaCl, 10 mM HEPES and 10 mM EGTA, pH adjusted to 7.2 with KOH, and the external solution contained 140 mM NaCl, 4 mM KCl, 2 mM CaCl2, 1 mM MgCl2, 5 mM glucose, 10 mM HEPES, pH adjusted to 7.4 with NaOH, and 0.1% DMSO to match the DMSO concentration of the compound solutions. For PIEZO1 stimulation, KC159, KC157 or Yoda1 was applied directly onto the cells via a pipette application. One chip of the SyncroPatch 384 is equipped with 384 wells served by 384 robotic pipettes and connected to 384 individual amplifiers, allowing us to test 384 distinct cells in one experiment. We tested the effect of each specified analogue on mPIEZO1‐, hPIEZO1‐ and untransfected HEK‐TREx cells in parallel and in comparison to mechanical and Yoda1 stimulation. To estimate the EC50 values, four concentrations of each agonist were tested per cell line in one chip, with each cell receiving single concentrations, and the concentration–response curve was calculated across the whole chip (384 cells). Only cells with seal resistance >0.3 GΩ, series resistance <20 MΩ and cell capacitance >5 and <40 pF were used for analysis.
DataControl 384 (Nanion Technologies GmbH), Prism 9 (GraphPad) and OriginPro 2020 (OriginLab) were used for all analysis of automated patch‐clamp data. For manual and automated patch‐clamp data, n represents the number of cells recorded from successfully in each experimental condition, sampled from two to six batches of cells or 384‐well chips in automated patch clamp. For manual patch‐clamp experiments, each cell/patch recording (n) is considered as an independent experiment because each was made independently at a separate time, using a separate coverslip of cells and using a separate patch pipette. In some instances, more than one such independent recording was made from the same batch of cultured or transfected cells. These n values are considered as independent. Each cell was studied alone and from a separate coverslip in the case for manual patch clamp. To estimate the EC50 values of the agonists in automated patch‐clamp studies, the peak current in the presence of the agonist was normalised to the peak current in the presence of the reference solution. Single‐point concentration–response curves were fitted with a standard Hill equation to estimate EC50 values. P < 0.05 was deemed significant. For automated patch‐clamp experiments, we included some data for n < 5 (Figure 7a,b). […] Such replicates are a feature of, and a rationale for, this automated technology, which is an innovation for the type of research shown here but already commonly used in the pharmaceutical industry for other ion channel studies to increase throughput and avoid waste from large volumes of independent cell cultures and minimise cost from expensive specially engineered plates. As a general strategy, our study used multiple independent technical approaches to address the same or similar questions. […]

T1 sequence (Q92508 whole entry): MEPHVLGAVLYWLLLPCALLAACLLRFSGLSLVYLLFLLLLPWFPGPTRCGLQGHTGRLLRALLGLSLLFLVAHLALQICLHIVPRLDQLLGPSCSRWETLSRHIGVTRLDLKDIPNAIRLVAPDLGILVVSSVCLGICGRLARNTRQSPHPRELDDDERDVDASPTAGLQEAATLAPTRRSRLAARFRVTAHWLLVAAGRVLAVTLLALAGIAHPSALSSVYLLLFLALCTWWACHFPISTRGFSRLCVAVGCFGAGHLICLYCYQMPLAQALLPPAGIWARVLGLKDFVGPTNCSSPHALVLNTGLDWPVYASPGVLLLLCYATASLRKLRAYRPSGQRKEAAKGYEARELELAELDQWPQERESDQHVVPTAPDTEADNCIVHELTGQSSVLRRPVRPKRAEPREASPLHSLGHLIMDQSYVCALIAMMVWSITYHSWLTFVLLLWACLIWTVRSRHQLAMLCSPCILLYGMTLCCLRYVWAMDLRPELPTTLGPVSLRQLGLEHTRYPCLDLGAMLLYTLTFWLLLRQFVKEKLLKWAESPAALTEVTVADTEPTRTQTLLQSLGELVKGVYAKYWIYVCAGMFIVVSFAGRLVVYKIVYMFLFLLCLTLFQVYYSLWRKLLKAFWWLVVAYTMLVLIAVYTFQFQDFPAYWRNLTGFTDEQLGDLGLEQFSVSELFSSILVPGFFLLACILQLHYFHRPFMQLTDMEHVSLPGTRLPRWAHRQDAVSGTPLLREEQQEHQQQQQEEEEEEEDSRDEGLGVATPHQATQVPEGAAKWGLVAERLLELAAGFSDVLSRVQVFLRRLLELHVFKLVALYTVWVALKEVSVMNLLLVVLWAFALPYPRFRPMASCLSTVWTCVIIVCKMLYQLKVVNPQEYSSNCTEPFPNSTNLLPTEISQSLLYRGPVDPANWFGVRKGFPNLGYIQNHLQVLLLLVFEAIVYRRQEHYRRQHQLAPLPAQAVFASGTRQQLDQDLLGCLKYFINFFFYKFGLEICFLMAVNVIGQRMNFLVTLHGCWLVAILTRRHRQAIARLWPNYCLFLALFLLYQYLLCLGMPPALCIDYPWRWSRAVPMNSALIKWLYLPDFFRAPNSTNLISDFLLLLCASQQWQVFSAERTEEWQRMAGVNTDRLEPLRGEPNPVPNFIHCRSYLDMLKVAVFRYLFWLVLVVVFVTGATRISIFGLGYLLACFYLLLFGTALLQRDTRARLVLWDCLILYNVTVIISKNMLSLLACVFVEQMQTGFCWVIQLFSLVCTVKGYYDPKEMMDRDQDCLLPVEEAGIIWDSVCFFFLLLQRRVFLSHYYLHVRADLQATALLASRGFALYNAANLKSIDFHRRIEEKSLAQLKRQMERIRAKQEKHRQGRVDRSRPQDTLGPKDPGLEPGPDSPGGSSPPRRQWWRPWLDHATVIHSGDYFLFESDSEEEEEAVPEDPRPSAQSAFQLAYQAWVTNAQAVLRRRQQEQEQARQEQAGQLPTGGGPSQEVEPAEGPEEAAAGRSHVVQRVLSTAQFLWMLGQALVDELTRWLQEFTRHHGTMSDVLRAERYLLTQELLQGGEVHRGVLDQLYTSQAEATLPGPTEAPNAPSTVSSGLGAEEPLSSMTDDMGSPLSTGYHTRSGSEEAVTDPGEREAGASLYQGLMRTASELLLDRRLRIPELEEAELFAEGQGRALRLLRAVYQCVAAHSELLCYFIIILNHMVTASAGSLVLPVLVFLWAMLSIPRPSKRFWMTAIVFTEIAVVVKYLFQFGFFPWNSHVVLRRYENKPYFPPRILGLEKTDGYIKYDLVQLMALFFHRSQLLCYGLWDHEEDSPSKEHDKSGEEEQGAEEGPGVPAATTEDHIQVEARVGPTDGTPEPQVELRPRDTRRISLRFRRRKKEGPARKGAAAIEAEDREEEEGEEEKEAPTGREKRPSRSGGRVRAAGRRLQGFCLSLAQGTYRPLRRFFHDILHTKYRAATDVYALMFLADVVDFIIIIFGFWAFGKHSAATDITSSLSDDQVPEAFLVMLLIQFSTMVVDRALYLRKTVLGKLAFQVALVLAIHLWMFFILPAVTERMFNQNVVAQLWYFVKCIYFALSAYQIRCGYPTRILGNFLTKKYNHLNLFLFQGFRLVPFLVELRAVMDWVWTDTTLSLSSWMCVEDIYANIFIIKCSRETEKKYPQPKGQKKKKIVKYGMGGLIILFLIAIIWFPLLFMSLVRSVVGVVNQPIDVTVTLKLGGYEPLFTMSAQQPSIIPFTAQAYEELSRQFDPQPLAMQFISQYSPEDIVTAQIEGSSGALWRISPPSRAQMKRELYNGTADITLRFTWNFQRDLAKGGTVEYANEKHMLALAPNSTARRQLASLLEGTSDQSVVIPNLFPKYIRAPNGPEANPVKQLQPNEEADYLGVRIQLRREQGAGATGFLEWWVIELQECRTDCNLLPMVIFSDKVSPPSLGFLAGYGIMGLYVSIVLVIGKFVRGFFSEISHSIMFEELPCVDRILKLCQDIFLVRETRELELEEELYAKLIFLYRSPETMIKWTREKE

Compound | Effect on M-Stim-evoked currents (10 μM) | Cells responding to activation | Sustained component of current as % of peak current (10 μM, hPIEZO1 cells, mean ± SD) | EC50 (hPIEZO1, normalised peak current, maximum response not certain, read-out: EC50 (estimate))
O=C(O)c1ccccc1-c1nnc(SCc2c(Cl)cccc2Cl)s1 [KC157] | mostly fails to evoke responses | largely ineffective |  | 
O=C(O)c1ccc(-c2nnc(SCc3c(Cl)cccc3Cl)s2)cc1 [KC159] | greatly amplifies the currents | more cells to respond compared with Yoda1 | −4 ± 2% | ~1670 nM
